These results are taken from US6759238B1, “Multidrug resistance associated proteins and uses thereof” (priority 1999, dated 2004).

Read-outs that look alike come from different tables or passages of the source.

Data set [1] relates to CEM-SS cells. Briefly: Cytotoxicity assay (growth inhibition, Coulter counter). As for the experimental part: […] Each result is the mean of one representative experiment performed in duplicate. The cultures with the purine nucleosides adenosine, 2′-deoxyadenosine, and arabinosyladenine contained 5 μM deoxycoformycin to inhibit adenosine deaminase activity.
(§1) All assays were performed in 24-well tissue culture plates (Costar, Cambridge, Ma.). […] At the end of the incubation, the cell concentrations, sizes, and volumes were counted in a Coulter counter (Coulter Electronics, Hialeah. Fla.).

Data set [2] has as its system CEM-r1 cells. The description is as above. The settings on record: for Relative Resistance: CEM-r1 vs CEM-SS (Table 3); for Cross-resistance of CEM-r1 cells (in words): relative sensitivity of wild-type and CEM-r1 cells. The method, then:
Selection for PMEA resistance was carried out by exposing CEM-SS cells in culture to increasing concentrations of PMEA, over several months.
The IC50 values were obtained after 2 days of culture. Each result is the mean of one representative experiment performed in duplicate. The cultures with the purine nucleosides adenosine, 2′-deoxyadenosine, and arabinosyladenine contained 5 μM deoxycoformycin to inhibit adenosine deaminase activity.
as §1

Data set [3] deals with CEM-r1 cells. Kind of data set: Efflux of [3H]-AZT and its metabolites. The format is in vitro ADME, human. As for the experimental part:
Cells were incubated for 60 minutes with [^3H]-AZT (10 μM) after which they were washed free of radioactivity, resuspended in drug-free medium and the intracellular and the extracellular concentration of [^3H]-AZT were measured. […] At least 80% of the AZTMP present intracellularly in CEM-r1 cells was excreted into the medium in 10 minutes (FIG. 6A).
Referring to Table 6 in greater detail, efflux kinetics were studied. Transport analysis of PMEA was conducted as previously described^48. […] The cells were then washed free of radioactivity and then incubated in drug-free medium in the presence of sodium azide and 2-deoxy-D-glucose. At various time periods, the amount of intracellular AZTMP was measured. As reported in Table 6, depletion of ATP led to an inhibition of AZTMP efflux (i.e. a significant accumulation of AZTMP in the CEM-r1 cells but not in the CEM-SS cells).
The suspension was centrifuged at 3,300 rpm for 7 minutes. All but 1 ml of the supernatant medium containing the free drug was aspirated. […] The cell pellet was then washed with ice-cold medium and resuspended at the same concentration in drug-free medium and maintained at 37° C. […] An aliquot of the top layer (cell free media) was analyzed for the quantitation of AZT and its metabolites.

In data set [4] the test system is CEM-r1 cells. Briefly: Phosphorylation of AZT. The settings on record: CEM-r1, 10 μM AZT. The format is in vitro ADME, human. As for the experimental part:
(§2) The appearance of the phosphorylated metabolites into the medium was also determined in both the cell lines. AZTDP and AZTTP were not detected in the medium of either CEM-SS or CEM-r1 cells. However, the amount of AZTMP accumulated in the media was approximately 3-fold higher in CEM-r1 cells than in CEM-SS cells.
(§3) The cartridges were conditioned with 10% MeOH Ammonium Phosphate Buffer (5 mM, pH 4.0). The sample was loaded onto the column. […] AZTDP and AZTTP were eluted with 10% MeOH Ammonium Phosphate Buffer (700 mm, pH 4.6).

In data set [5] the test system is CEM-SS cells. Kind of data set: Phosphorylation of AZT. The format is in vitro ADME, human. The settings on record: 10 μM AZT. The method, then:
as §2, §3

In data set [6] the test system is CEM-r1 cells. Kind of data set: Uptake and metabolism of [3H]bispom-PMEA. The settings on record: CEM-r1, 1 μM [3H]bispom-PMEA, 15 minutes. The method, then: (§4) Therefore, the metabolism of [^3H]bispom-PMEA (15), a lipophilic prodrug of PMEA, was analyzed in the two cell lines in order to further examine the mechanism of resistance in the mutant cell line.
In data set [7] the test system is CEM-SS cells. Briefly: Uptake and metabolism of [3H]bispom-PMEA. The settings on record: CEM-SS, 1 μM [3H]bispom-PMEA, 15 minutes. The method, then:
as §4

Data set [8] has as its system CEM-r1 cells. Kind of data set: Uptake and metabolism of [3H]PMEA. The settings on record: for Intracellular levels: CEM-r1, 10 μM [3H]PMEA; for Intracellular level in CEM-r1 as percent of the wildtype level: CEM-r1 vs CEM-SS.
Method: (§5) The mutant and parental cells were incubated with 10 μM [^3H]PMEA and at various times were analyzed for intracellular levels of PMEA and its metabolites by Partisil SAX HPLC. […] The metabolism of [^3H]PMEA was also examined in both cell lines after longer periods (i.e., 8 and 12 hr) of incubation with 10 μM [^3H]PMEA.
(§6) Exponentially growing cultures were incubated with 10 μM [^3H] PMEA for 8 or 12 hr and the cell extracts were analyzed for PMEA and its metabolites by ion exchange HPLC, as described.
(§7) Exponentially growing CEM-SS and CEM-r1 cells were harvested by centrifugation, resuspended at 1×10^6 cells/ml in fresh medium in the presence of [^3H]PMEA or [^3H]bispom-PMEA, and incubated at 37° C. At the indicated time points, aliquots of the cells were removed and centrifuged through Nyosil 50 (W. F. Nye, Inc., New Bedford, Ma.) at 13,000×g for 60 seconds at 4° C. When bispom-PMEA was investigated, an aliquot of the cell-free medium was also removed and analyzed by HPLC for determination of extracellular metabolites. The cell pellet was extracted with 70% ice-cold methanol and the aqueous phase was collected and analyzed for intracellular tritiated PMEA or tritiated bispom-PMEA and their metabolites by using HPLC analysis, essentially as described previously (23, 24).
For data set [9], the system named is CEM-SS cells. Briefly: Uptake and metabolism of [3H]PMEA. The settings on record: 10 μM [3H]PMEA.
Method: as §5, §6, §7
The mark [10] stands for this setting: CEM-SS, 2 days of culture (Table 3).
[11] abbreviates: CEM-r1, 2 days of culture (Table 3).

Broadly, the IC50 is the concentration at which inhibition is half-maximal. For the compound `Nc1nc(Cl)nc2c1ncn2[C@H]1C[C@H](O)[C@@H](CO)O1` [2-Chlorodeoxyadenosine], the IC50 in [1] (Homo sapiens, CEM-SS, 48 h) came to 0.08 µM; in data set [2] (Homo sapiens, 48 h), 0.4 µM. Further, the “Relative Resistance” value in data set [2] is on record as 5.5. In addition, the “Cross-resistance of CEM-r1 cells (in words)” value (shortened to “Cross-resistance”) in data set [2] is “partially resistant”.

Consider `Nc1nc(F)nc2c1ncn2[C@@H]1O[C@H](CO)[C@@H](O)[C@@H]1O` [2-Fluoroarabinosyladenine], for which, in data set [1] (setting [10]), half-maximal inhibition (IC50) required 1.2 µM. This compound gave an IC50 in [2] (setting [11]) of 4.4 µM. Also, in data set [2], the “Relative Resistance” value was 3.7 and the “Cross-resistance” value is “partially resistant”.

`Nc1ncnc2c1ncn2[C@H]1C[C@H](O)[C@@H](CO)O1` [2′-Deoxyadenosine]: the IC50 in data set [1] (Homo sapiens, CEM-SS, 48 h) was 1.7 µM; in data set [2] (Homo sapiens, 48 h), 2.5 µM. Also, the “Relative Resistance” value in data set [2] is “˜1”.

`Cc1cn([C@H]2C[C@H](N=[N+]=[N-])[C@@H](COP(=O)(O)OP(=O)(O)O)O2)c(=O)[nH]c1=O` [AZTDP]: in data set [3], the “Change of intracellular levels over the time period studied” value is reported as “did not change significantly” and the “Share of total cellular anabolites” value is listed as 1%.

For the compound `Cc1cn([C@H]2C[C@H](N=[N+]=[N-])[C@@H](CO[P@](=O)(O)O[P@](=O)(O)OP(=O)(O)O)O2)c(=O)[nH]c1=O` [AZTTP], the “Appearance in the medium” value in [4] and in data set [5] was “not detected” in each case. Further, the “Intracellular Concentration” value in [4] (4 hours) was determined as 0.36 µM; in data set [4] (8 hours), 0.34 µM; in data set [4] (24 hours), 0.43 µM; in [5] (4 hours), 1.3 µM; in data set [5] (8 hours), 1.5 µM; in data set [5] (24 hours), 1.3 µM. Also, the “Change of intracellular levels over the time period studied” value in data set [3] is “did not change significantly”. In [3] (human, 10 μM), the “Share of total cellular anabolites” value was 1%.

For `Nc1ncnc2c1ncn2[C@@H]1O[C@H](CO)[C@@H](O)[C@H]1O` [Adenosine], in data set [1] (Homo sapiens, CEM-SS, 48 h), the IC50 stood at 38 µM. For the same compound, in data set [2], the “Relative Resistance” value is 5.4 and the “Cross-resistance” value is “partially resistant”. The compound further had an IC50 in data set [2] (Homo sapiens, 48 h) of 205 µM.

For `Nc1ncnc2c1ncn2[C@@H]1O[C@H](CO)[C@@H](O)[C@@H]1O` [Arabinosyladenine], the IC50 amounted to 0.7 µM in data set [1] (Homo sapiens, CEM-SS, 48 h) and 0.9 µM in data set [2] (Homo sapiens, 48 h). The “Relative Resistance” value in [2] is reported as “˜1”.

`COc1cc2c(c(OC)c1OC)-c1ccc(OC)c(=O)cc1[C@@H](NC(C)=O)CC2` [Colchicine]: the “Cross-resistance” value in data set [2] is given as “not resistant”.

Consider `Nc1ncnc2c1ncn2C[C@@H](CO)OCP(=O)(O)O` [HPMPA], for which the IC50 stood at 92 µM in data set [1] (setting [10]) and 1100 µM in data set [2] (setting [11]). Also, the “Relative Resistance” value in data set [2] is reported as 12. Further, in data set [2], the “Cross-resistance” value is listed as “partial cross-resistance”.

For `NC(=O)NO` [Hydroxyurea], the IC50 in data set [1] (Homo sapiens, CEM-SS, 48 h) stood at 55 µM; in data set [2] (Homo sapiens, 48 h) it was 50 µM. For the same compound, the “Relative Resistance” value in data set [2] is on record as “˜1”.

`CC(C)(C)C(=O)OCOP(=O)([O-])COCCn1cnc2c(N)ncnc21.[Na+]` [Monopom-PMEA]: in [6], the “Metabolite Levels, Cells” value came out at 4.1 µM and the “Metabolite Levels, Medium” value was 166 nM. In [7], the “Metabolite Levels, Cells” value was 4.6 µM and the “Metabolite Levels, Medium” value was determined as 185 nM.

Turning to `Nc1nc(N)c2ncn(CCOCP(=O)(O)O)c2n1` [PMEADAP], the IC50 was determined as 2.3 µM in data set [1] (Homo sapiens, CEM-SS, 48 h) and 1200 µM in data set [2] (Homo sapiens, 48 h). The “Relative Resistance” value in data set [2] was determined as 533. Further, the “Cross-resistance” value in data set [2] is on record as “highly cross-resistant”.

Take `Nc1ncnc2c1ncn2CCOCP(=O)(O)OP(=O)(O)O` [PMEAp]: the Intracellular levels in data set [8] (8 hr) was determined as 0.005 µM; in data set [8] (12 hr), 0.005 µM; in [9] (8 hr), 0.13 µM; in data set [9] (12 hr) it was 0.23 µM. Moreover, in [8] (8 hr), the “Intracellular level in CEM-r1 as percent of the wildtype level” value is “(3.8%)”.

`Nc1ncnc2c1ncn2CCOCP(=O)(O)OP(=O)(O)OP(=O)(O)O` [PMEApp]: the Intracellular levels in [8] (8 hr) was 0.008 µM; in data set [8] (12 hr), 0.01 µM; in [9] (8 hr), 0.22 µM; in data set [9] (12 hr), 0.41 µM. For the same compound, in data set [8] (8 hr), the “Intracellular level in CEM-r1 as percent of the wildtype level” value is listed as “(3.6%)”.

With `Nc1nc2c(ncn2CCOCP(=O)(O)O)c(=O)[nH]1` [PMEG, 9-(2-phosphonylmethoxyethyl)guanine], the IC50 in data set [1] (setting [10]) is 0.7 µM; in data set [1] (read-out: Cytotoxicity IC50, WT (CEM-SS) cells (Table 5)) it was 5 µM; in [2] (setting [11]), 19 µM; in [2] (read-out: Cytotoxicity IC50, CEM-r1 cells (Table 5)), 200 µM. Besides, the “Cross-resistance” value in [2] is recorded as “partial cross-resistance”.

In [1] (Homo sapiens, CEM-SS, 48 h), `CC[C@]1(O)C[C@@H]2CN(CCc3c([nH]c4ccccc34)[C@@](C(=O)OC)(c3cc4c(cc3OC)N(C)[C@H]3[C@@](O)(C(=O)OC)[C@H](OC(C)=O)[C@]5(CC)C=CCN6CC[C@]43[C@@H]65)C2)C1` [Vinblastine] displayed an IC50 of 0.0018 µM. Moreover, in [2], the “Relative Resistance” value is on record as “˜1” and the “Cross-resistance” value is on record as “not resistant”. The IC50 in [2] (Homo sapiens, 48 h) worked out at 0.0021 µM.
